Source: US8680133B2, “Alkyl indole-3-carbinol-derived antitumor agents” (The Ohio State University Research Foundation, priority 2009, dated 2014)

Columns and labels:
Assay type in all cases: cell-based, human
[1] = system: CCRF-CEM; experiment: NCI60 screening, Leukemia, CCRF-CEM
[2] = system: MOLT-4; experiment: NCI60 screening, Leukemia, MOLT-4
[3] = system: NCI-H23; experiment: NCI60 screening, Non-Small Cell Lung Cancer, NCI-H23
[4] = system: NCI-H460; experiment: NCI60 screening, Non-Small Cell Lung Cancer, NCI-H460
[5] = system: NCI-H522; experiment: NCI60 screening, Non-Small Cell Lung Cancer, NCI-H522
[6] = system: HCT-116; experiment: NCI60 screening, Colon Cancer, HCT-116
[7] = system: HT29; experiment: NCI60 screening, Colon Cancer, HT29
[8] = system: SF-295; experiment: NCI60 screening, CNS Cancer, SF-295
[9] = system: SF-539; experiment: NCI60 screening, CNS Cancer, SF-539
[10] = Homo sapiens, read-out: LC50 (the source's name)

Cc1ccc2c(c1)c(CO)cn2S(=O)(=O)c1ccc(Cl)c([N+](=O)[O-])c1 [OSU-A9M, [1-(4-chloro-3-nitro-benzenesulfonyl)-5-methyl-1H-indol-3-yl]-methanol]
TGI [1]: 2.58E−6
GI50 ([1]; Homo sapiens): 0.3 µM
CC50 [1, 10]: 87.4 µM
Percent Growth ([1]; Log10 Concentration −4.0): −52%
Percent Growth ([1]; Log10 Concentration −5.0): −21%
Percent Growth ([1]; Log10 Concentration −6.0): 14%
Percent Growth ([1]; Log10 Concentration −7.0): 82%
Percent Growth ([1]; Log10 Concentration −8.0): 84%
TGI [2]: 1.96E−6
GI50 ([2]; Homo sapiens): 0.334 µM
LC50 ([2]; Homo sapiens): 18.3 µM
Percent Growth ([2]; Log10 Concentration −4.0): −64%
Percent Growth ([2]; Log10 Concentration −5.0): −45%
Percent Growth ([2]; Log10 Concentration −6.0): 19%
Percent Growth ([2]; Log10 Concentration −7.0): 85%
Percent Growth ([2]; Log10 Concentration −8.0): 92%
TGI [3]: 2.89E−6
GI50 ([3]; Homo sapiens): 1.53 µM
CC50 [3, 10]: 5.46 µM
Percent Growth ([3]; Log10 Concentration −4.0): −96%
Percent Growth ([3]; Log10 Concentration −5.0): −97%
Percent Growth ([3]; Log10 Concentration −6.0): 83%
Percent Growth ([3]; Log10 Concentration −7.0): 90%
Percent Growth ([3]; Log10 Concentration −8.0): 92%
TGI [4]: 3.36E−6
GI50 ([4]; Homo sapiens): 1.83 µM
LC50 (concentration killing 50% of cells) ([4]; Homo sapiens): 6.18 µM
Percent Growth ([4]; Log10 Concentration −4.0): −89%
Percent Growth ([4]; Log10 Concentration −5.0): −89%
Percent Growth ([4]; Log10 Concentration −6.0): 100%
Percent Growth ([4]; Log10 Concentration −7.0): 99%
Percent Growth ([4]; Log10 Concentration −8.0): 96%
TGI [5]: 3.54E−7
GI50 ([5]; Homo sapiens): 0.145 µM
CC50 [5, 10]: 0.861 µM
Percent Growth ([5]; Log10 Concentration −4.0): −96%
Percent Growth ([5]; Log10 Concentration −5.0): −96%
Percent Growth ([5]; Log10 Concentration −6.0): −58%
Percent Growth ([5]; Log10 Concentration −7.0): 71%
Percent Growth ([5]; Log10 Concentration −8.0): 77%
TGI [6]: 1.57E−6
GI50 ([6]; Homo sapiens): 0.461 µM
LC50 ([6]; Homo sapiens): 3.97 µM
Percent Growth ([6]; Log10 Concentration −4.0): −100%
Percent Growth ([6]; Log10 Concentration −5.0): −100%
Percent Growth ([6]; Log10 Concentration −6.0): 24%
Percent Growth ([6]; Log10 Concentration −7.0): 100%
Percent Growth ([6]; Log10 Concentration −8.0): 101%
TGI [7]: 1.59E−6
GI50 ([7]; Homo sapiens, HT-29): 0.434 µM
CC50 ([7]; Homo sapiens, HT-29, read-out: LC50 (the source's name)): 3.98 µM
Percent Growth ([7]; Log10 Concentration −4.0): −100%
Percent Growth ([7]; Log10 Concentration −5.0): −100%
Percent Growth ([7]; Log10 Concentration −6.0): 25%
Percent Growth ([7]; Log10 Concentration −7.0): 94%
Percent Growth ([7]; Log10 Concentration −8.0): 91%
TGI [8]: 3.07E−6
GI50 ([8]; Homo sapiens): 1.62 µM
CC50 [8, 10]: 5.81 µM
Percent Growth ([8]; Log10 Concentration −4.0): −86%
Percent Growth ([8]; Log10 Concentration −5.0): −93%
Percent Growth ([8]; Log10 Concentration −6.0): 88%
Percent Growth ([8]; Log10 Concentration −7.0): 91%
Percent Growth ([8]; Log10 Concentration −8.0): 77%
TGI [9]: 2.94E−6
GI50 ([9]; Homo sapiens): 1.6 µM
CC50 [9, 10]: 5.42 µM
Percent Growth ([9]; Log10 Concentration −4.0): −100%
